According to patent US8772283B2, “Imidazo-oxazine compound or salt thereof” (Taiho Pharmaceutical Co., Ltd., priority 2011, dated 2014):

Key:
[1] = target: human AKT1 (Homo sapiens (Human), UniProt P31749); assay: AKT1 kinase activity inhibition (TR-FRET, biotinylated Crosstide substrate); assay type: biochemical; details: preincubation 120 min at 25° C.; ATP 150 μM; Crosstide 500 nM
Outline: (§1)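 Middle-T-tagged human AKT1 or AKT2, Sf9-expressed, affinity-purified and PDK1-activated, was preincubated 120 min at 25 °C with compound in 15 mM Tris-HCl pH 7.5, 0.01% Tween-20, 2 mM DTT. Kinase reaction then ran 60 min with 500 nM biotin-Crosstide, 10 mM MgCl2 and 150 μM ATP before EDTA stop. IC50 came from the Eu/APC TR-FRET 665/620 nm ratio.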

[2] = target: human AKT2 (Homo sapiens (Human), UniProt P31751); assay: AKT2 kinase activity inhibition (TR-FRET, biotinylated Crosstide substrate); assay type: biochemical; details: preincubation 120 min at 25° C.; ATP 150 μM; Crosstide 500 nM
Outline: as §1

[3] = tested on: AKT Ser473 phosphorylation; assay: Phosphorylated AKT (Ser473) inhibitory activity in cultured cell A2780 (Meso Scale Discovery assay); assay type: cell-based; details: A2780 cells, 3 hours treatment; average±standard deviation of three independent runs
Description: (§2) To evaluate the inhibitory activity of the above compounds against AKT activity, AKT Ser 473 phosphorylation and phosphorylation of S6 ribosomal protein (S6RP) (a downstream factor of Akt signal) at Ser240/Ser244, which serve as indices for the activation status of AKT, were measured in extracts of cultured cells which had been treated with the above compounds. For the measurement, assays (manufactured by Meso Scale Discovery) utilizing electrochemiluminescence based on the ELISA principle were used for both AKT Ser473 and S6RP Ser240/Ser244.
(§3) In 10% FBS-containing RPMI1640 medium (Invitrogen), ovarian cancer-derived A2780 cells in the logarithmic growth phase were seeded at 4.5×10^4 cells/150 μL/well into polylysine coated 96-well flat-bottom plates, and cultured for one day in an incubator at 5% CO2, 37° C., and 100% humidity.
(§4) Each compound of the present invention was supplied as a stock solution prepared at a concentration of 10 mM in DMSO. Using this solution, a dilution series was prepared in DMSO solvent at 200-fold of the final concentrations (10, 3, 1, 0.3, 0.1, 0.03, 0.01, 0.003 μM). The day after the cells were seeded, the compound dilution series at a 200-fold concentration was diluted 50-fold in medium for cell culture. To each well of the aforementioned A2780 cell culture plates, 50 μL of the diluted compound dilution series was added. The plates were then placed back in the incubator, and the culture was continued for 3 hours at 5% CO2, 37° C., and 100% humidity.
(§5) Meso Scale Discovery's 96-Well Multi-Spot Phospho-AKT (Ser473) Assay (K151CAA-3) and Phospho (Ser240/244)/Total S6RP Assay (K11139D-2) were used. In advance, a necessary amount of the supplied cell extract buffer was dispensed, and protease inhibitor cocktail and protein phosphatase inhibitor cocktail were added thereto, and kept cold on ice. The culture plates of the cells cultured with the compounds for 3 hours were taken out and the medium was removed. 100 μL of the cell extract buffer kept cold was added per well, followed by extraction by shaking at 300 r.p.m. for 1 hour using a plate shaker while maintaining a temperature of 4° C. Using the obtained extracts at 40 μL/well for the Phospho-AKT (Ser473) Assay and at 15 μL/well for the Phospho(Ser240/244)/Total S6RP Assay, reactions were conducted at 4° C. overnight with shaking at 300 r.p.m. according to the document attached to the kits. The next day, after the wells were washed three times with the supplied wash buffer, 50 μL/well of SULFO-TAG™ sandwich antibody solution was added, and reactions were carried out at room temperature for 1 hour. The wells were washed with the wash buffer three times, and 150 μL of the supplied Read Buffer T was added to each well. The amounts of phosphorylation of AKT and S6RP were measured by a SECTOR Imager 6000 plate reader (manufactured by Meso Scale Discovery) within 30 minutes of the Read Buffer T addition.
(§6) The extraction buffer-only background was subtracted from all of the measurement values, and AKT and S6RP phosphorylation signals in the control cell extract treated with only DMSO were defined as 100%. The compound concentrations and the levels of phosphorylated AKT and S6PR (expressed as a percentage relative to the control) in each concentration were plotted, and IC50 concentration (nM) that achieves 50% inhibition of the control was determined.

[4] = tested on: S6 ribosomal protein (S6RP) Ser240/Ser244 phosphorylation; assay: Phosphorylated S6RP (Ser240/Ser244) inhibitory activity in cultured cell A2780 (Meso Scale Discovery assay); assay type: cell-based; details: A2780 cells, 3 hours treatment; average±standard deviation of three independent runs
Description: as §2, §3, §4, §5, §6

Sequence of human AKT2 (P31751 whole entry): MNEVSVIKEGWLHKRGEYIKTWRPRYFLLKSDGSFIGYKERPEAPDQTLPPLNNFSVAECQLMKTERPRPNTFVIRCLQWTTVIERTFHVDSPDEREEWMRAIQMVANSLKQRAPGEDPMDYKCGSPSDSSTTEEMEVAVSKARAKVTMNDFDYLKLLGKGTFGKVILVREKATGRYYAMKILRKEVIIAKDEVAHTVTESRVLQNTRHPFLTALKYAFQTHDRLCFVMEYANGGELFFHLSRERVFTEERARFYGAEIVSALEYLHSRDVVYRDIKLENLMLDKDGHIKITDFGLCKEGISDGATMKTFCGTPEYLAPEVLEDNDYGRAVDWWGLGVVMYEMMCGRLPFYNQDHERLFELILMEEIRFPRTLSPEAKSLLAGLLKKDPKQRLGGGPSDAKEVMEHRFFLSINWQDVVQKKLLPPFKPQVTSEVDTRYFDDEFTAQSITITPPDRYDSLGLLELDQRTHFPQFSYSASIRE
Sequence of human AKT1 (P31749 whole entry): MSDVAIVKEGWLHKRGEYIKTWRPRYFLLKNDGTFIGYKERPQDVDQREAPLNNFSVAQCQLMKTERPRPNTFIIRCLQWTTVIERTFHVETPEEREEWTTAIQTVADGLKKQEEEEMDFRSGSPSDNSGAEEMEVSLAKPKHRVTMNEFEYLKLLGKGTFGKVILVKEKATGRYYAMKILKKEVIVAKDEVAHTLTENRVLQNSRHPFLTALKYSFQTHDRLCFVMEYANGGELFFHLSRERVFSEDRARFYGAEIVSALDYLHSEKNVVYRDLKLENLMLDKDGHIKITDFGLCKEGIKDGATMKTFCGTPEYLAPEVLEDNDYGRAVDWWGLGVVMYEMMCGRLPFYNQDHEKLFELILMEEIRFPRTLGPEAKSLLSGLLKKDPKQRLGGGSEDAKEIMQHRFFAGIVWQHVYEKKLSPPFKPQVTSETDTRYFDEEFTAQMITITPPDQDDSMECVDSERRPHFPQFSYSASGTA

| Structure (SMILES) | IC50 [1] [nM] | IC50 [2] [nM] | IC50 [3] [nM] | IC50 [4] [nM] |
| --- | --- | --- | --- | --- |
| C[C@]1(O)C[C@@](N)(c2ccc(-c3nc4n(c3-c3ccccc3)COc3ccc(CO)cc3-4)cc2)C1 [Example 44, trans-3-amino-3-(4-(9-(hydroxymethyl)-3-phenyl-5H-benzo[e]imidazo[1,2-c][1,3]oxazin-2-yl)phenyl)-1-methylcyclobutanol] | 2.2 | 0.55 | 33 ± 7 | 46 ± 17 |
| CC[C@]1(O)C[C@@](N)(c2ccc(-c3nc4n(c3-c3ccccc3)COc3cccnc3-4)cc2)C1 [Example 30, trans-3-amino-1-ethyl-3-(4-(3-phenyl-5H-imidazo[1,2-c]pyrido[2,3-e][1,3]oxazin-2-yl)phenyl)cyclobutanol] | 33 | 4.6 | 104 ± 27 | 174 ± 47 |
| C[C@]1(O)C[C@@](N)(c2ccc(-c3nc4n(c3-c3ccccc3)COc3ccc(C#N)cc3-4)cc2)C1 [Example 46, 2-(4-(trans-1-amino-3-hydroxy-3-methylcyclobutyl)phenyl)-3-phenyl-5H-benzo[e]imidazo[1,2-c][1,3]oxazine-9-carbonitrile] | 4.4 | 0.97 | 32 ± 5 | 53 ± 6 |
